In ChEMBL document CHEMBL1129235, “Discovery of the hemifumarate and (alpha-L-alanyloxy)methyl ether as prodrugs of an antirheumatic oxindole: prodrugs for the enolic OH group” (J Med Chem, 1996):
Converted amounts (≈) assume the structure as drawn.

Experiments:
Rattus norvegicus = organism: Rattus norvegicus; assay: Relative bioavailability of prodrugs in rat; assay type: ADME, organism-based; details: in vivo
[1] = (§1) Aqueous solubility; assay type: physicochemical; details: aqueous medium (not further specified); read-out: S
[2] = as §1; assay type: physicochemical; details: aqueous medium (not further specified); read-out: S; remark: listed apart in the source
Canis familiaris = organism: Canis familiaris; assay: Relative bioavailability of oxindole prodrugs in dog; assay type: ADME, organism-based, Canis lupus familiaris; details: in vivo
[3] = as §1; assay type: physicochemical; details: aqueous medium (not further specified); read-out: S; remark: listed apart in the source
[4] = Relative bioavailability of oxindole prodrugs in monkey; assay type: ADME, organism-based; details: simiiformes, in vivo
[5] = as §1; assay type: physicochemical; details: aqueous medium (not further specified); read-out: S; remark: listed apart in the source
[6] = Ionization constant for the compound was evaluated; assay type: physicochemical

Compound | Relative F% (Rattus norvegicus) | solubility [1] | also measured
CC(C)OC(=O)OC(C)O/C(=C1/C(=O)N(C(N)=O)c2cc(Cl)c(F)cc21)c1cccs1 (stereo not drawn) | 12 |  | 
NC(=O)N1C(=O)/C(=C(/OCOC(=O)c2ccccc2)c2cccs2)c2cc(F)c(Cl)cc21 | 0 |  | 
CC(C)C(N)C(=O)OCO/C(=C1/C(=O)N(C(N)=O)c2cc(Cl)c(F)cc21)c1cccs1.Cc1ccc(S(=O)(=O)O)cc1 (stereo not drawn) | 27 |  | 
NC(=O)N1C(=O)/C(=C(/OCOC(=O)COCc2ccccc2)c2cccs2)c2cc(F)c(Cl)cc21 | 42 |  | 
CCOC(=O)O/C(=C1\C(=O)N(C(N)=O)c2cc(Cl)c(F)cc21)c1cccs1 | 3.5 | 0.023 µg/mL (≈ 0.056 µM) | 
NC(=O)N1C(=O)/C(=C(\OC(=O)c2ccccc2)c2cccs2)c2cc(F)c(Cl)cc21 | 0 |  | 
CC(=O)OC(C)O/C(=C1/C(=O)N(C(N)=O)c2cc(Cl)c(F)cc21)c1cccs1 (stereo not drawn) | 2.3 | 0.04 µg/mL (≈ 0.0942 µM) | 
NC(=O)N1C(=O)/C(=C(\OC(=O)c2cccnc2)c2cccs2)c2cc(F)c(Cl)cc21 | 0 | < 0.06 µg/mL | solubility [2]: < 0.06 µg/mL
CC(=O)OCC(=O)OCO/C(=C1/C(=O)N(C(N)=O)c2cc(Cl)c(F)cc21)c1cccs1 | 17 | < 0.02 µg/mL | 
CC(C)CC(N)C(=O)OCO/C(=C1/C(=O)N(C(N)=O)c2cc(Cl)c(F)cc21)c1cccs1.Cc1ccc(S(=O)(=O)O)cc1 (stereo not drawn) | 81 |  | 
CC(O)C(=O)OCO/C(=C1/C(=O)N(C(N)=O)c2cc(Cl)c(F)cc21)c1cccs1 (stereo not drawn) | 90 |  | Relative bioavailability (Canis familiaris): 22; solubility [3]: 0.38 µg/mL (≈ 0.862 µM)
NC(=O)N1C(=O)/C(=C(\OC(=O)c2ccncc2)c2cccs2)c2cc(F)c(Cl)cc21 | 2.2 | 0.32 µg/mL (≈ 0.721 µM) | solubility [2]: < 0.07 µg/mL
CCOC(=O)CCC(=O)O/C(=C1\C(=O)N(C(N)=O)c2cc(Cl)c(F)cc21)c1cccs1 | 3.5 |  | 
CCC(=O)O/C(=C1\C(=O)N(C(N)=O)c2cc(Cl)c(F)cc21)c1cccs1 | 6.6 | 0.003 µg/mL (≈ 0.0076 µM) | 
O=C(c1cccs1)c1c2cc(F)c(Cl)cc2n2c(=O)[nH]c(=O)oc12 | 25 | 17 µg/mL (≈ 46.6 µM) | 
CC(C)(C)OC(=O)NCC(=O)OCO/C(=C1/C(=O)N(C(N)=O)c2cc(Cl)c(F)cc21)c1cccs1 | 0 | 0.06 µg/mL (≈ 0.114 µM) | 
CCC(OC)C(=O)OCO/C(=C1/C(=O)N(C(N)=O)c2cc(Cl)c(F)cc21)c1cccs1 (stereo not drawn) | 93 |  | 
CC(=O)O/C(=C1\C(=O)N(C(N)=O)c2cc(Cl)c(F)cc21)c1cccs1 | 14 | 0.011 µg/mL (≈ 0.0289 µM) | 
CCOC(=O)OC(C)O/C(=C1/C(=O)N(C(N)=O)c2cc(Cl)c(F)cc21)c1cccs1 (stereo not drawn) | 26 | 0.009 µg/mL (≈ 0.0198 µM) | Relative bioavailability (Canis familiaris): 1.4
COCC(=O)OCO/C(=C1/C(=O)N(C(N)=O)c2cc(Cl)c(F)cc21)c1cccs1 | 62 |  | 
CC(C)(C)C(=O)O/C(=C1\C(=O)N(C(N)=O)c2cc(Cl)c(F)cc21)c1cccs1 | 3.7 |  | 
NC(=O)N1C(=O)/C(=C(/OC(=O)/C=C/c2ccccc2)c2cccs2)c2cc(F)c(Cl)cc21 | 4 |  | 
CCCCC(=O)O/C(=C1\C(=O)N(C(N)=O)c2cc(Cl)c(F)cc21)c1cccs1 | 17 | 0.013 µg/mL (≈ 0.0307 µM) | 

Compound | Relative F% (Rattus norvegicus) | solubility [1] | also measured
CC(NC(=O)OC(C)(C)C)C(=O)OCO/C(=C1/C(=O)N(C(N)=O)c2cc(Cl)c(F)cc21)c1cccs1 (stereo not drawn) | 20 |  | 
CCN(CC)C(=O)COC(=O)CCC(=O)O/C(=C1/C(=O)N(C(N)=O)c2cc(Cl)c(F)cc21)c1cccs1 | 16 |  | 
CCCCCCCCOC(=O)O/C(=C1/C(=O)N(C(N)=O)c2cc(Cl)c(F)cc21)c1cccs1 | 5.7 |  | 
NC(=O)N1C(=O)/C(=C(\OC(=O)c2ccccn2)c2cccs2)c2cc(F)c(Cl)cc21 | 1.6 | < 0.06 µg/mL | solubility [2]: < 0.06 µg/mL
CC(=O)OCC(=O)O/C(=C1\C(=O)N(C(N)=O)c2cc(Cl)c(F)cc21)c1cccs1 | 6.6 |  | 
Cc1ccc(S(=O)(=O)O)cc1.NCC(=O)OCO/C(=C1/C(=O)N(C(N)=O)c2cc(Cl)c(F)cc21)c1cccs1 | 46 |  | Relative bioavailability (Canis familiaris): 78
COC(C)C(=O)OCO/C(=C1/C(=O)N(C(N)=O)c2cc(Cl)c(F)cc21)c1cccs1 (stereo not drawn) | 45 |  | 
C[C@@H](N)C(=O)OCO/C(=C1/C(=O)N(C(N)=O)c2cc(Cl)c(F)cc21)c1cccs1.Cc1ccc(S(=O)(=O)O)cc1 | 80 |  | Relative bioavailability (Canis familiaris): 78; Relative bioavailability [4]: 78; solubility [3]: 150 µg/mL
COCC(=O)O/C(=C1\C(=O)N(C(N)=O)c2cc(Cl)c(F)cc21)c1cccs1 | 8.9 |  | 
CCCC(OCc1ccccc1)C(=O)OCO/C(=C1/C(=O)N(C(N)=O)c2cc(Cl)c(F)cc21)c1cccs1 (stereo not drawn) | 58 |  | Relative bioavailability (Canis familiaris): 7.5
NC(=O)N1C(=O)/C(=C(\OC(=O)c2cccc(C(=O)O)c2)c2cccs2)c2cc(F)c(Cl)cc21 | 4.2 | 0.58 µg/mL (≈ 1.19 µM) | 
COC(=O)O/C(=C1\C(=O)N(C(N)=O)c2cc(Cl)c(F)cc21)c1cccs1 | 13 |  | 
CCN(CC)C(=O)OCC(=O)OCO/C(=C1/C(=O)N(C(N)=O)c2cc(Cl)c(F)cc21)c1cccs1 | 36 |  | 
CCOC(=O)/C=C/C(=O)O/C(=C1/C(=O)N(C(N)=O)c2cc(Cl)c(F)cc21)c1cccs1 | 21 | < 0.02 µg/mL | Relative bioavailability (Canis familiaris): 6.4
CCC(OCc1ccccc1)C(=O)OCO/C(=C1/C(=O)N(C(N)=O)c2cc(Cl)c(F)cc21)c1cccs1 (stereo not drawn) | 86 |  | Relative bioavailability (Canis familiaris): 12
CC(C)(C)C(=O)OCO/C(=C1/C(=O)N(C(N)=O)c2cc(Cl)c(F)cc21)c1cccs1 | 0 |  | 
NC(=O)N1C(=O)/C(=C(/OC(=O)/C=C/C(=O)O)c2cccs2)c2cc(F)c(Cl)cc21 | 95 | 0.08 µg/mL (≈ 0.183 µM) | Relative bioavailability (Canis familiaris): 91; Relative bioavailability [4]: 73; solubility [3]: 2.5 µg/mL (≈ 5.72 µM); solubility [5]: 24 µg/mL (≈ 54.9 µM)
COCC(=O)OC(C)O/C(=C1/C(=O)N(C(N)=O)c2cc(Cl)c(F)cc21)c1cccs1 (stereo not drawn) | 47 | 0.34 µg/mL (≈ 0.747 µM) | Relative bioavailability (Canis familiaris): 5.2
Cl.Cl.NCCCCC(N)C(=O)OCO/C(=C1/C(=O)N(C(N)=O)c2cc(Cl)c(F)cc21)c1cccs1 (stereo not drawn) | 49 |  | 
CC(C)OC(=O)O/C(=C1/C(=O)N(C(N)=O)c2cc(Cl)c(F)cc21)c1cccs1 (stereo in doubt; 32) | 0.6 |  | 
CC(C)OC(=O)O/C(=C1/C(=O)N(C(N)=O)c2cc(Cl)c(F)cc21)c1cccs1 (stereo in doubt; 33) | 9.9 |  | 
NC(=O)N1C(=O)C(=C(O)c2cccs2)c2cc(F)c(Cl)cc21 [ILONIDAP] | 100 | 40 µg/mL (≈ 118 µM) | Relative bioavailability (Canis familiaris): 100; Relative bioavailability [4]: 100; pKa [6]: 3.5
